Laboratory results from patent publication US5922689A, “Cisplatin analogs for cancer treatment” (Unitech Pharmaceuticals, Inc., priority 1997, dated 1999).

Columns and labels:
[1] = test system: MCF-7 breast cancer cells; assay: Side-by-side growth assay versus cisplatin, MCF-7, Example 6; type: cell-based, human; conditions: for MCF-7 cell count: untreated 2.96 × 10^6
Description: (§1) Growth Assay: plate individual cells (human breast cancer cells MCF-7, and MDA-MB-231) at 10^4 cells/mL, 1-mL/well in MEM-10 (MEM+10% FBS, where FBS is fetal Bovine Serum) with 1/100 Penicillin/Strep. Add 1/100 volume of the above Test Solution (10 μL/mL) to triplicate wells. MCF-7 also requires 10 μg/mL insulin; MDA-MB-231 requires no insulin. Incubate cell cultures at 37° C. for 6 days and count the number of cells.
(§2) side-by-side comparison of cis-[Pt(NH3)2 PtCl(Guanosine)]Cl and cisplatin (performed by Biotherapies Incorporated of Ann Arbor, Mich.)
(§3) Test Solutions: Test solutions were prepared in the same manner as in Example 5, except, additional test solution was prepared employing cisplatin.
(§4) Growth Assay: The same method in Example 5 was used. However, the cells studied were normal human mammary cells and breast cancer cells, MCF-7.

[2] = test system: normal human mammary cells; assay: Side-by-side growth assay versus cisplatin, normal human mammary cells, Example 6; type: cell-based; conditions: for cell count, normal human mammary cells: untreated 1.00 × 10^5; for % inhibition: normal human mammary cells
Description: as §1, §2, §3, §4

[3] = test system: human breast cancer cells MCF-7; assay: In-vitro growth assay (cell count after 6 days), MCF-7, Example 5; type: cell-based; conditions: 37° C.; for MCF-7 cell count / % inhibition: 6 days; for MCF-7 cell count: untreated 6.70 × 10^5
Description: (§5) In-vitro inhibition of cancer cells by cis-[(NH3)2 PtCl(Guanosine)]Cl (performed by Biotherapies Incorporated, Ann Arbor, Mich.)
as §1

[4] = test system: human breast cancer cells MDA-MB-231; assay: In-vitro growth assay (cell count after 6 days), MDA-MB-231, Example 5; type: cell-based; conditions: 37° C.; for MDA cell count / % inhibition: 6 days; for MDA cell count: untreated 4.00 × 10^5
Description: as §5, §1

[5] = 0.012 mg/mL (4.00 × 10^-5 mmole/mL)
[6] = cisplatin 0.025 mg/mL (8.33 × 10^-5 mmole/mL)
[7] = 0.05 mg/mL (8.57 × 10^-5 mmole/mL)
[8] = #95001 0.025 mg/mL (4.29 × 10^-5 mmole/mL)
[9] = 0.00025 mg/mL (4.29 × 10^-7 mmole/mL)
[10] = 0.0025 mg/mL (4.29 × 10^-6 mmole/mL)
[11] = 0.025 mg/mL (4.29 × 10^-5 mmole/mL)

Compound: N.N.[Cl][Pt][Cl] [cisplatin, cis-diamminedichloroplatinum]
- MCF-7 cell count [1, 5]: 5.00 × 10^3
- % inhibition ([1]; MCF-7, 0.012 mg/mL (4.00 × 10^-5 mmole/mL)): 99.8%
- % inhibition ([1]; MCF-7, cisplatin 0.025 mg/mL (8.33 × 10^-5 mmole/mL)): 99.9%
- MCF-7 cell count [1, 6]: 5.00 × 10^3
- cell count, normal human mammary cells [2, 5]: 1.00 × 10^4
- cell count, normal human mammary cells [2, 6]: 3.30 × 10^3
- % inhibition [2, 5]: 90.0%
- % inhibition [2, 6]: 99.0%

Compound: cis-diamminechloroguanosineplatinum chloride [cis-[Pt(NH3)2 Cl(Guanosine)]Cl]
- MCF-7 cell count [1, 7]: 6.70 × 10^3
- MCF-7 cell count [1, 8]: 3.30 × 10^3
- % inhibition ([1]; MCF-7, 0.05 mg/mL (8.57 × 10^-5 mmole/mL)): 99.8%
- % inhibition ([1]; MCF-7, #95001 0.025 mg/mL (4.29 × 10^-5 mmole/mL)): 97.6%
- effectiveness in killing MCF-7 cells versus cisplatin (in words) ([1]; ca. 8×10-5 mmole/mL): as effective as cisplatin in killing MCF-7 cells
- cell count, normal human mammary cells [2, 7]: 4.50 × 10^4
- cell count, normal human mammary cells [2, 8]: 9.30 × 10^4
- toxicity to normal human mammary cells versus cisplatin (in words) ([2]; ca. 8×10-5 mmole/mL): lower than cisplatin
- % inhibition [2, 7]: 55.0%
- % inhibition [2, 8]: 7.0%
- MCF-7 cell count [3, 9]: 6.10 × 10^5
- MCF-7 cell count [3, 10]: 5.00 × 10^4
- MCF-7 cell count [3, 11]: 1.00 × 10^4
- % inhibition ([3]; MCF-7, 0.00025 mg/mL (4.29 × 10^-7 mmole/mL)): 9.0%
- % inhibition ([3]; MCF-7, 0.0025 mg/mL (4.29 × 10^-6 mmole/mL)): 92.5%
- % inhibition ([3]; MCF-7, 0.025 mg/mL (4.29 × 10^-5 mmole/mL)): 98.5%
- inhibition of cell growth (in words) ([3]; MCF-7, 6 days): able to inhibit the cell growth
- MDA cell count [4, 9]: 3.55 × 10^5
- MDA cell count [4, 10]: 5.00 × 10^4
- MDA cell count [4, 11]: 1.00 × 10^4
- % inhibition ([4]; MDA-MB-231, 0.00025 mg/mL (4.29 × 10^-7 mmole/mL)): 11.3%
- % inhibition ([4]; MDA-MB-231, 0.0025 mg/mL (4.29 × 10^-6 mmole/mL)): 87.5%
- % inhibition ([4]; MDA-MB-231, 0.025 mg/mL (4.29 × 10^-5 mmole/mL)): 97.5%
- inhibition of cell growth (in words) ([4]; MDA-MB-231, 6 days): able to inhibit the cell growth
